Tested on: patients with advanced solid tumors
Test: Safety: treatment-emergent and senaparib-related adverse events graded per NCI CTCAE v4.03
Format: in vivo
Description: This phase I, open-label, multicenter, dose-escalation, and dose-expansion study was conducted at three national clinical institutions in China. […] At baseline, all patients enrolled in the dose-escalation phase had to have at least one evaluable lesion, and those in the dose-expansion period had to have at least one measurable lesion, according to Response Evaluation Criteria in Solid Tumors version 1.1 (RECIST v1.1).[16] Entry to the dose-expansion cohort required the presence of a BRCA mutation, with the exception of patients with ovarian carcinoma, fallopian tube carcinoma, and primary peritoneal carcinoma. Full study eligibility criteria are provided in Supplementary Table S1.
Dose escalation was conducted using a modified Fibonacci 3 + 3 method (Supplementary Fig. S1).[17] Patients were administered oral senaparib from a planned starting dose of 2 mg once daily (QD), with preliminary dose escalation to 120 mg via nine dose groups, in order of their entry into the study. At a given dose level, each patient received a single dose of senaparib followed by a 7-day washout period. They then entered a continuous dosing period to confirm the safety and PK profile, in which they received senaparib QD from day 1 to day 21 of each 3-week cycle. Progression to the next higher dose required approval from the Data Safety Monitoring Committee (DSMC) upon review of the safety and PK data of the previous dose. A 50-mg twice-daily (BID) dosing group was added (planned enrollment, n = 6 patients) based on a DSMC review of the safety, PK, and efficacy analysis of the completed QD dose groups in the phase I clinical trial of senaparib dose escalation in Australia (NCT03507543), which commenced prior to the start of this trial.
The dose-expansion period included 3 populations: dose groups in which at least one patient achieved complete response (CR) or partial response (PR) per RECIST v1.1[16] and 1 dose group higher (evaluated for safety), as well as the dose group at the maximum tolerated dose (MTD)/recommended phase II dose (RP2D). Each of these groups included those patients in the respective dose-escalation group plus a planned additional 10 patients (approximately 20 patients in the MTD/RP2D group) with BRCA^mut+ solid tumors (ovarian, breast, or prostate cancer were preferred, and ovarian cancer could be BRCA wild type). Patients received senaparib monotherapy orally QD or BID (50-mg dose only) over each 3-week cycle until disease progression or unacceptable toxicity.
DLTs were predefined toxicities (Supplementary Table S2) recorded over the 7 days following the single-dose administration of senaparib and during the first treatment cycle (day 1-day 21) for each dose group in the dose-escalation period only. The MTD was defined as the maximum dose at which ≤1/6 patients experienced a DLT. Senaparib PK parameters were derived from blood samples collected from patients after the single administration, and at regular intervals during the first cycle of the dose-escalation and dose-expansion periods. Plasma concentrations of senaparib were determined using high-performance liquid chromatography-tandem mass spectrometry. Tumor response was assessed every 6 weeks per RECIST v1.1,[16] recording objective response rate (ORR), disease control rate (DCR), duration of response (DOR), and progression-free survival (PFS) by dose level for all patients and for those harboring BRCA^mut+ tumors.

Structure (SMILES): O=C(c1cc(Cn2c(=O)[nH]c(=O)c3c(F)cccc32)ccc1F)N1CCN(c2ncccn2)CC1 [Senaparib]
- Appetite decreased TRAE, All (80 mg QD n = 9): 3 (33.3) n (%)
- Appetite decreased TRAE, Gr≥3 (80 mg QD n = 9): 0 n (%)
- Asthenia TRAE, All (80 mg QD n = 9): 2 (22.2) n (%)
- Asthenia TRAE, Gr≥3 (80 mg QD n = 9): 0 n (%)
- Blood bilirubin increased TRAE, All (80 mg QD n = 9): 2 (22.2) n (%)
- Blood bilirubin increased TRAE, Gr≥3 (80 mg QD n = 9): 0 n (%)
- Blood creatinine increased TRAE, All (80 mg QD n = 9): 2 (22.2) n (%)
- Blood creatinine increased TRAE, Gr≥3 (80 mg QD n = 9): 0 n (%)
- Hypokalemia TRAE, All (80 mg QD n = 9): 3 (33.3) n (%)
- Nausea TRAE, All (80 mg QD n = 9): 4 (44.4) n (%)
- Nausea TRAE, Gr≥3 (80 mg QD n = 9): 0 n (%)
- Neutrophil count decreased TRAE, All (80 mg QD n = 9): 4 (44.4) n (%)
- Neutrophil count decreased TRAE, Gr≥3 (80 mg QD n = 9): 1 (11.1) n (%)
- Platelet count decreased TRAE, All (80 mg QD n = 9): 4 (44.4) n (%)
- Platelet count decreased TRAE, Gr≥3 (80 mg QD n = 9): 2 (22.2) n (%)
- SAEs, events (80 mg QD n = 9): 5 n ev
- SAEs, patients (80 mg QD n = 9): 5 (55.6) n (%)
- TEAE Grade ≥3, events (80 mg QD n = 9): 12 n ev
- TEAE Grade ≥3, patients (80 mg QD n = 9): 6 (66.7) n (%)
- TEAEs leading to death, events (80 mg QD n = 9): 1 n ev
- TEAEs leading to death, patients (80 mg QD n = 9): 1 (11.1) n (%)
- TEAEs leading to dose discontinuation, events (80 mg QD n = 9): 4 n ev
- TEAEs leading to dose discontinuation, patients (80 mg QD n = 9): 1 (11.1) n (%)
- TEAEs leading to dose interruption, events (80 mg QD n = 9): 9 n ev
- TEAEs leading to dose interruption, patients (80 mg QD n = 9): 4 (44.4) n (%)
- TEAEs leading to dose reduction, events (80 mg QD n = 9): 3 n ev
- TEAEs leading to dose reduction, patients (80 mg QD n = 9): 3 (33.3) n (%)
- TRAEs Grade ≥3, events (80 mg QD n = 9): 10 n ev
- TRAEs Grade ≥3, patients (80 mg QD n = 9): 5 (55.6) n (%)
- TRAEs, events (80 mg QD n = 9): 109 n ev
- TRAEs, patients (80 mg QD n = 9): 9 (100) n (%)
- Vomiting TRAE, All (80 mg QD n = 9): 2 (22.2) n (%)
- Vomiting TRAE, Gr≥3 (80 mg QD n = 9): 1 (11.1) n (%)
- WBC decreased TRAE, All (80 mg QD n = 9): 5 (55.6) n (%)
- WBC decreased TRAE, Gr≥3 (80 mg QD n = 9): 1 (11.1) n (%)
- ALT increased TRAE, All (100 mg QD n = 20): 5 (25.0) n (%)
- ALT increased TRAE, Gr≥3 (100 mg QD n = 20): 0 n (%)
- AST increased TRAE, All (100 mg QD n = 20): 4 (20.0) n (%)
- AST increased TRAE, Gr≥3 (100 mg QD n = 20): 1 (5.0) n (%)
- Anemia TRAE, All (100 mg QD n = 20): 11 (55.0) n (%)
- Anemia TRAE, Gr≥3 (100 mg QD n = 20): 4 (20.0) n (%)
- Any TEAE, All (100 mg QD n = 20): 20 (100) n (%)
- Any TEAE, Gr≥3 (100 mg QD n = 20): 7 (35.0) n (%)
- Any TEAE, events (100 mg QD n = 20): 158 n ev
- Any TEAE, patients (100 mg QD n = 20): 20 (100) n (%)
- Any TRAE, All (100 mg QD n = 20): 20 (100) n (%)
- Any TRAE, Gr≥3 (100 mg QD n = 20): 7 (35.0) n (%)
- Appetite decreased TRAE, All (100 mg QD n = 20): 5 (25.0) n (%)
- Appetite decreased TRAE, Gr≥3 (100 mg QD n = 20): 0 n (%)
- Asthenia TRAE, All (100 mg QD n = 20): 5 (25.0) n (%)
- Asthenia TRAE, Gr≥3 (100 mg QD n = 20): 0 n (%)
- Blood bilirubin increased TRAE, All (100 mg QD n = 20): 3 (15.0) n (%)
- Blood bilirubin increased TRAE, Gr≥3 (100 mg QD n = 20): 0 n (%)
- Blood creatinine increased TRAE, All (100 mg QD n = 20): 2 (10.0) n (%)
- Blood creatinine increased TRAE, Gr≥3 (100 mg QD n = 20): 0 n (%)
- Hypokalemia TRAE, All (100 mg QD n = 20): 0 n (%)
- Hypokalemia TRAE, Gr≥3 (100 mg QD n = 20): 0 n (%)
- Nausea TRAE, All (100 mg QD n = 20): 4 (20.0) n (%)
- Nausea TRAE, Gr≥3 (100 mg QD n = 20): 0 n (%)
- Neutrophil count decreased TRAE, All (100 mg QD n = 20): 5 (25.0) n (%)
- Neutrophil count decreased TRAE, Gr≥3 (100 mg QD n = 20): 2 (10.0) n (%)
- Platelet count decreased TRAE, All (100 mg QD n = 20): 6 (30.0) n (%)
- Platelet count decreased TRAE, Gr≥3 (100 mg QD n = 20): 1 (5.0) n (%)
- SAEs, events (100 mg QD n = 20): 1 n ev
- SAEs, patients (100 mg QD n = 20): 1 (5.0) n (%)
- TEAE Grade ≥3, events (100 mg QD n = 20): 9 n ev
- TEAE Grade ≥3, patients (100 mg QD n = 20): 7 (35.0) n (%)
- TEAEs leading to death, events (100 mg QD n = 20): 0 n ev
- TEAEs leading to death, patients (100 mg QD n = 20): 0 n (%)
- TEAEs leading to dose discontinuation, events (100 mg QD n = 20): 1 n ev
- TEAEs leading to dose discontinuation, patients (100 mg QD n = 20): 1 (5.0) n (%)
- TEAEs leading to dose interruption, events (100 mg QD n = 20): 8 n ev
- TEAEs leading to dose interruption, patients (100 mg QD n = 20): 6 (30.0) n (%)
- TEAEs leading to dose reduction, events (100 mg QD n = 20): 6 n ev
- TEAEs leading to dose reduction, patients (100 mg QD n = 20): 4 (20.0) n (%)
- TRAEs Grade ≥3, events (100 mg QD n = 20): 9 n ev
- TRAEs Grade ≥3, patients (100 mg QD n = 20): 7 (35.0) n (%)
- TRAEs, events (100 mg QD n = 20): 144 n ev
- TRAEs, patients (100 mg QD n = 20): 20 (100) n (%)
- Vomiting TRAE, All (100 mg QD n = 20): 5 (25.0) n (%)
- Vomiting TRAE, Gr≥3 (100 mg QD n = 20): 0 n (%)
- WBC decreased TRAE, All (100 mg QD n = 20): 9 (45.0) n (%)
- WBC decreased TRAE, Gr≥3 (100 mg QD n = 20): 1 (5.0) n (%)
- ALT increased TRAE, All (120 mg QD n = 4): 2 (50.0) n (%)
- ALT increased TRAE, Gr≥3 (120 mg QD n = 4): 1 (25.0) n (%)
- AST increased TRAE, All (120 mg QD n = 4): 2 (50.0) n (%)
- AST increased TRAE, Gr≥3 (120 mg QD n = 4): 0 n (%)
- Anemia TRAE, All (120 mg QD n = 4): 3 (75.0) n (%)
- Anemia TRAE, Gr≥3 (120 mg QD n = 4): 1 (25.0) n (%)
- Any TEAE, All (120 mg QD n = 4): 4 (100) n (%)
- Any TEAE, Gr≥3 (120 mg QD n = 4): 3 (75.0) n (%)
- Any TEAE, events (120 mg QD n = 4): 52 n ev
- Any TEAE, patients (120 mg QD n = 4): 4 (100) n (%)
- Any TRAE, All (120 mg QD n = 4): 4 (100) n (%)
- Any TRAE, Gr≥3 (120 mg QD n = 4): 3 (75.0) n (%)
- Appetite decreased TRAE, All (120 mg QD n = 4): 1 (25.0) n (%)
- Appetite decreased TRAE, Gr≥3 (120 mg QD n = 4): 0 n (%)
- Asthenia TRAE, All (120 mg QD n = 4): 2 (50.0) n (%)
- Asthenia TRAE, Gr≥3 (120 mg QD n = 4): 0 n (%)
- Blood bilirubin increased TRAE, All (120 mg QD n = 4): 2 (50.0) n (%)
- Blood bilirubin increased TRAE, Gr≥3 (120 mg QD n = 4): 1 (25.0) n (%)
- Blood creatinine increased TRAE, All (120 mg QD n = 4): 1 (25.0) n (%)
- Blood creatinine increased TRAE, Gr≥3 (120 mg QD n = 4): 0 n (%)
- Hypokalemia TRAE, All (120 mg QD n = 4): 0 n (%)
- Hypokalemia TRAE, Gr≥3 (120 mg QD n = 4): 0 n (%)
- Nausea TRAE, All (120 mg QD n = 4): 1 (25.0) n (%)
- Nausea TRAE, Gr≥3 (120 mg QD n = 4): 0 n (%)
- Neutrophil count decreased TRAE, All (120 mg QD n = 4): 1 (25.0) n (%)
- Neutrophil count decreased TRAE, Gr≥3 (120 mg QD n = 4): 0 n (%)
- Platelet count decreased TRAE, All (120 mg QD n = 4): 1 (25.0) n (%)
- Platelet count decreased TRAE, Gr≥3 (120 mg QD n = 4): 0 n (%)
- SAEs, events (120 mg QD n = 4): 1 n ev
- SAEs, patients (120 mg QD n = 4): 1 (25.0) n (%)
- TEAE Grade ≥3, events (120 mg QD n = 4): 6 n ev
- TEAE Grade ≥3, patients (120 mg QD n = 4): 3 (75.0) n (%)
- TEAEs leading to death, events (120 mg QD n = 4): 0 n ev
